Test results published in BigSolDB 2.1.

N#Cc1cccc([N+](=O)[O-])c1C#N
solubility (mole fraction)
Conditions | 278.15 K | 283.15 K | 288.15 K | 293.15 K | 298.15 K | 303.15 K | 308.15 K | 313.15 K | 318.15 K | 323.15 K
in NMP | 0.0839 | 0.0936 | 0.104 | 0.115 | 0.128 | 0.141 | 0.155 | 0.17 | 0.186 | 0.203
in acetone | 0.0204 | 0.0242 | 0.0286 | 0.0338 | 0.0399 | 0.0472 | 0.0558 | 0.0661 | 0.0783 | 0.0929
in ethanol | 0.000924 | 0.00111 | 0.00134 | 0.0016 | 0.00194 | 0.00232 | 0.00273 | 0.00325 | 0.00382 | 0.00448
in ethyl acetate | 0.0178 | 0.0208 | 0.0242 | 0.0281 | 0.0324 | 0.0372 | 0.0426 | 0.0487 | 0.0555 | 0.063
in ethylene glycol | 0.0131 | 0.0158 | 0.019 | 0.0226 | 0.0268 | 0.0317 | 0.0373 | 0.0438 | 0.0512 | 0.0596
in isobutanol | 0.000381 | 0.000424 | 0.000477 | 0.000552 | 0.000643 | 0.000765 | 0.000921 | 0.00111 | 0.00135 | 0.00169
in isopropanol | 0.000561 | 0.000681 | 0.000837 | 0.00103 | 0.00125 | 0.00151 | 0.00179 | 0.00216 | 0.00257 | 0.00305
in methanol | 0.00203 | 0.0024 | 0.00283 | 0.00332 | 0.00388 | 0.00452 | 0.00523 | 0.00597 | 0.00695 | 0.00796
in n-butanol | 0.000411 | 0.000478 | 0.000569 | 0.000686 | 0.000836 | 0.001 | 0.0012 | 0.00143 | 0.00171 | 0.00207
in n-propanol | 0.000735 | 0.000899 | 0.00109 | 0.00132 | 0.00159 | 0.00189 | 0.00226 | 0.00268 | 0.00317 | 0.00373
in toluene | 0.000946 | 0.00116 | 0.00142 | 0.00173 | 0.0021 | 0.00254 | 0.00305 | 0.00367 | 0.00437 | 0.00521
in water | 5.32e-05 | 6.38e-05 | 7.98e-05 | 9.78e-05 | 0.00012 | 0.000146 | 0.000176 | 0.00021 | 0.00025 | 0.000298
